“Also recorded” adds a separate entry of the source.
Experiments:
[1] = tested on: NAMPT cone-CKO mice; test: ERG rescue in NAMPT cone-CKO mice; format: in vivo, mouse; settings: NMN i.p.
From the text: The inventors examined the effect of selectively disrupting NAD biosynthesis within PR. The inventors utilized the cre-lox strategy to generate mice that had NAMPT conditionally deleted from either rods (NAMPT rod-CKO) or cones (NAMPT cone-CKO). The NAMPT fl/fl mice as well as the rhodopsin-cre and cone opsin-cre mice have been previously characterized. Both rod and cone cko mice are generated with normal Mendelian frequencies and are born normal with no observable systemic abnormalities (data not shown). All structural and functional analyses performed in CKO mice are analyzed in comparison to littermate controls. Rods constitute a majority of the PR neurons (97% of all photoreceptors). […] Neurosensory retinal degeneration was associated with secondary atrophy and pallor of the optic nerve (FIG. 29C).
These quantifiable structural and functional changes were associated with decrease in visual acuity in cone-CKO mice (FIG. 30E). Histopathologic analyses confirmed outer nuclear layer degeneration with subsequent multilayer retinal degeneration and cell death in cone-CKO mice similar to the changes seen above for rod-CKO mice. […] NMN treatment had no effect on littermate controls (FIG. 33A-B). […] Furthermore, providing NMN treatment is able to rescue PR neurons and vision.

[2] = 12 month-long NMN administration study: adverse effects and toxicity; format: in vivo
Experimental: A 12 month-long NMN administration study using wild-type mice under a regular chow-fed condition was conducted. NMN was administered through drinking water, and two doses of NMN, 100 and 300 mg/kg body weight/day, were tested. […] To assess beneficial and possible adverse effects of NMN, a variety of physiological parameters were periodically monitored, including body weight, body temperature, food and water intake, fed and fasted blood glucose levels, fed and fasted plasma lipid panels, and glucose and insulin tolerance, in NMN-administered and control mice. Blood chemistry, blood cell counts, urine strip test, and other physiological tests including physical activity test were also checked.

[3] = tested on: neurospheres (NSPCs); test: Neurosphere proliferation, marker proteins and cell cycle under FK866; format: cell-based, mouse
Experimental: Protein extracts (15-50 μg) from mouse hippocampi or neurospheres were prepared as previously described (Yoshino et al, 2011).
Total RNA was extracted from the hippocampus using an RNeasy kit (Qiagen) and reverse-transcribed into cDNA with a High Capacity cDNA Reverse Transcription kit (Applied Biosystems). Quantitative real-time RT-PCR was conducted with the TaqMan Fast Universal PCR Master mix and appropriate TaqMan primers for each gene with the GeneAmp 7500 fast sequence detection system (Applied Biosystems). Relative expression levels were calculated for each gene by normalizing to Gapdh levels and then to a control.
FK866 (Hasmann & Schemainda, 2003) (Sigma F8557), EX527 (Peck et al, 2010) (Cayman Chemical 10009798), and AGK2 (Outeiro et al, 2007) (Sigma A8231) were dissolved in DMSO and used to inhibit Nampt, Sirt1, and Sirt2 respectively.
Neurosphere cultures and culture media were prepared as described by Dasgupta & Gutmann, 2005 and Lu & Ramanan, 2012 with the following minor modifications. Briefly, postnatal hippocampi were dissected in HibernateA (Invitrogen, A12475-01) and trypsinized at 37° C. for 7 m. Cells were mechanically dissociated by pipetting and pelleted by centrifugation (1700 rpm, 7 min). Dissociation medium (0.1% sodium bicarbonate, 15 mM HEPES, 0.5% glucose in HBSS) was used to wash the cells before they were resuspended in growth medium. Growth medium consisted of DMEM:F12 (1:1, Invitrogen 11966-025 and 21700-075, respectively), B27 (Invitrogen, 17504-044), N2 (Invitrogen, 17502-048), Pen/Strep (Invitrogen), epidermal growth factor (EGF, 20 ng/ml, Sigma, E4127), fibroblast growth factor (FGF, 10 ng/mL, R&D Systems, 233-fb), and heparin (Sigma). Cultures were maintained at 37° C. with 5% CO2, and passaged twice before use in experiments. Three to nine independent samples, each in 1 to 3 replicates, from at least two different litters, were used in all experiments. Neurospheres were cultured in the physiological glucose level of 5 mM (Dienel & Cruz, 2006), which has been previously shown to have no negative consequences on NSPC proliferation, differentiation, or death (Fu et al, 2006; Gao & Gao, 2007).
Neurospheres derived from Nampt^flox/flox mice were dissociated by trypsin digestion and seeded at similar cell densities in 24-well plates with fresh growth medium. Every 24 hours, neurospheres from triplicate wells were collected, dissociated, and counted on a hemocytometer using 0.2% trypan blue exclusion to distinguish viable cells. For analysis of neurosphere diameter, the largest neurosphere in each well was imaged (20× objective) and the diameter was calculated using ImageJ. For secondary neurosphere analysis, the total number of neurospheres in each well was counted at 7 days post-plating.
The inventors investigated how inhibition of Nampt affects neurosphere proliferation. […] To distinguish whether this decrease in cell number was due to an inhibition of proliferation or enhancement of death, the inventors analyzed the protein levels of markers of proliferation, apoptosis, and autophagy. […] Parametric analysis of gene enrichment (PAGE) was conducted based on microarray analyses. See the Methods section. […] Data are presented as mean±s.e.m. *P<0.05. **P<0.01. ***P<0.001.

[4] = FK866 10 nM, 48 hours, immunoblot

Compound | effect on littermate controls [1] | ERG function ([1]; vs PBS treated cone-CKO mice) | adverse effects or signs of toxicity ([2]; 100 mg/kg or 300 mg/kg body weight/day in drinking water, 12 months) | water intake ([2]; NMN in drinking water, through the experimental period) | adverse effect on glucose metabolism ([2]; long-term NMN administration) | cyclins E and A and E2F1 mRNA (qRT-PCR) ([3]; FK866 10 nM, 48 hours) | levels of activated caspase 3 ([3]; FK866 10 nM, 48 hours) | levels of autophagy marker glycosylated LC3B ([3]; FK866 10 nM, 48 hours) | reduction of NSPC number ([3]; FK866 10 nM, 48 hours) [%] | decrease of Ki67 protein expression [3, 4] [%] | decrease of PCNA protein expression [3, 4] [%] | proportion of NSPCs in G0/G1 (FACS) ([3]; FK866 treatment) | proportion of NSPCs in S phase (FACS) ([3]; FK866 treatment)
NC(=O)c1ccc[n+]([C@@H]2O[C@H](COP(=O)([O-])O)[C@@H](O)[C@H]2O)c1 [NMN, nicotinamide mononucleotide] | no effect | improve ERG function | no adverse effects, such as malnutrition, or signs of toxicity were observed; also recorded: without showing any serious side effects | did not change significantly | does not show any adverse effect on glucose metabolism | – | – | – | – | – | – | – | –
O=C(/C=C/c1cccnc1)NCCCCC1CCN(C(=O)c2ccccc2)CC1 [FK866] | – | – | – | – | – | the primary cell cycle factors affected | only slightly increased | unchanged | 61 | 87 | 43 | increased the proportion of NSPCs in G0/G1 | decreased the proportion in S phase
